pEC50: −log10 of the molar value.
Legend:
[1] = Antagonist activity at DOR in CD1 mouse vas deferens assessed as pEC50 for DPDPE-induced inhibition of EFS-evoked contractions at 1 uM incubated for 60 mins
[2] = Agonist activity at MOR in Dunkin-Hartley guinea pig ileum assessed as inhibition of EFS-induced contractions incubated for 60 mins

SMILES | pEC50 [1] | pEC50 [2]
C[C@H]1[C@H]2Cc3ccc(O)cc3[C@]1(C)CCN2CCC(=O)Nc1ccccc1 | 3.90 | 
C[C@H]1[C@H]2Cc3ccc(O)cc3[C@]1(C)CCN2CCC(=O)Nc1cccc2ccccc12 | 5.10 | 1.30
